The results in this text go back to patent publication US11078228B2, “Ectonucleotidase inhibitors and methods of use thereof” (Calithera Biosciences, Inc., priority 2018, dated 2021).

For one data set, the target named is human plasma CD73 (Homo sapiens (Human), UniProt P21589). Kind of data set: Inhibition of CD73 in human plasma, LC/MS conversion of 15N5-AMP into 15N5-ADO. In kind it is biochemical. The procedure:
(§1) The potency of Compound 9 was evaluated against recombinant CD73 and CD73-expressing SK-MEL-28 cells using a malachite green assay. Inhibition of CD73 in plasma was measured using LC/MS to assess conversion of ^15N5-AMP into ^15N5-ADO. FIG. 4A indicates the nanomolar inhibition of CD73 cells from both human and mouse sources. […] Inhibition of CD73 in plasma was measured using LC/MS to assess conversion of ^15N5-AMP into ^15N5-ADO.

The target in a further data set is recombinant CD73 (Homo sapiens (Human), UniProt P21589). Kind of data set: Potency against recombinant CD73, malachite green assay. It counts as biochemical. The protocol: as §1
recombinant CD73, sequence (P21589 27-574): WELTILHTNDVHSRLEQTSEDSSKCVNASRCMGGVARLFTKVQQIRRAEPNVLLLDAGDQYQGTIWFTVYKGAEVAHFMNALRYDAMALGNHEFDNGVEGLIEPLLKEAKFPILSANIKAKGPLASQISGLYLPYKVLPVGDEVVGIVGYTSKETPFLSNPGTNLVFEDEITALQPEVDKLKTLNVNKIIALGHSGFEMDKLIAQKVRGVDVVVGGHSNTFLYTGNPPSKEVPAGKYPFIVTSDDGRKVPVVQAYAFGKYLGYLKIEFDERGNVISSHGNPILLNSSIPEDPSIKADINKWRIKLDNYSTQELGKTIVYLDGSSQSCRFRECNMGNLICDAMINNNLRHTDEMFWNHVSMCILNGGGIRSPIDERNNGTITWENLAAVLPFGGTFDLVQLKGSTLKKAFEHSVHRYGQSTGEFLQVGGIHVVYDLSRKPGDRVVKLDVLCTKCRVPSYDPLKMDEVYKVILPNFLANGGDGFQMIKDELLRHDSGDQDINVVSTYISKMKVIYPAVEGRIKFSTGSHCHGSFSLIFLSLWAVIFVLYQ
Another data set deals with Human CD8+ T cells. Kind of data set: Proliferation of human CD8+ T cells, CellTrace CFSE flow cytometry. Conditions: 100 μM, 4 days. In kind it is cell-based. The protocol:
Viability of EG7 and A375 cells treated with 100 μM Compound 9 was measured using CellTiter-Glo after 3 days. Proliferation of human CD8+ T cells was measured by flow cytometry after 4 days of treatment with 100 μM Compound 9 using CellTrace CFSE Cell Proliferation Kit.

For a further data set, the system named is EG7 cells. Kind of data set: EG7 subcutaneous tumor model in C57BL/6 mice, tumor volume. In kind it is in vivo, mouse. The procedure:
EG7 cells were implanted subcutaneously into C57BL/6 mice. Compound 9 (50 mg/kg) or vehicle was orally administered BID starting day one post implant (N=10 per group). Tumors were excised on day 14 and analyzed by flow cytometry. Compound 9 increased the % CD8+ cells of CD45+ cells as shown in FIG. 1A (* indicates p<0.05). EG7 cells were implanted subcutaneously into C57BL/6 mice. Anti-CD8 antibody was dosed i.p. on days −1, 0, 5, and 10. Compound 9 (50 mg/kg) or vehicle was orally dosed BID starting on day 1.
(§2) Compounds of the invention show potent anti-tumor effects, evidenced in reducing tumor volume in a mouse model. In one model, EG7 cells were implanted subcutaneously into C57BL/6 mice. Compound 9 or vehicle was orally administered BID starting day one post implant (N=10 per group). […] In another model, EG7 cells were implanted subcutaneously into C57BL/6 mice. Compound 9 was orally administered BID (100 mg/kg) starting day one post implant (N=10 per group). Vehicle was orally administered BID starting day one post implant (N=20) until day five post implant, at which time, mice were randomized by tumor volume into two groups. Compound 9 (100 mg/kg) or vehicle was orally administered BID to N=10 per group starting day six post implant. […] FIGS. 13B-D show individual replications of this measurement for each dosing. FIG. 13B is vehicle. FIG. 13C is dosing of Compound 9 started on day 1. FIG. 13D is Compound 9 started on day 6. In another model, CT26 cells were implanted subcutaneously into Balb/c mice. 100 mg/kg Compound 9 or vehicle was orally administered BID starting day one post implant (N=10 per group).
EG7 cells were implanted subcutaneously into C57BL/6 mice for each experiment. Anti-PD-L1 antibody (5 mg/kg) was dosed i.p. on Study Days 3, 5, 7, 9, 11, 13. Compound 9 (100 mg/kg) or vehicle was orally administered BID starting one day post implant. […] FIGS. 7B-7E show the individual replications of this measurement for each dosing. FIG. 7B is vehicle, FIG. 7C is anti-PD-L1 antibody, FIG. 7D is Compound 9, and FIG. 7E is Compound 9+ Anti-PD-L1.
Oxaliplatin was dosed i.p. 6 mg/kg on Study Days 7 and 14. Compound 9 (100 mg/kg) or vehicle was orally administered BID starting one day post implant. […] FIGS. 8B-8E show the individual replications of this measurement for each dosing. FIG. 8B is vehicle, FIG. 8C is oxaliplatin, FIG. 8D is Compound 9, and FIG. 8E is Compound 9+oxaliplatin.
Doxorubicin was dosed i.v. 2.5 mg/kg on Study Days 7 and 14. Compound 9 (50 mg/kg) or vehicle was orally administered BID starting one day post implant. […] FIGS. 9B-9E show the individual replications of this measurement for each dosing. FIG. 9B is vehicle, FIG. 9C is doxorubicin, FIG. 9D is Compound 9, and FIG. 9E is Compound 9+doxorubicin.
Docetaxel was dosed i.p. 5 mg/kg on Study Days 5, 12, and 19. Compound 9 (100 mg/kg) or vehicle was orally administered BID starting one day post implant. […] show the individual replications of this measurement for each dosing. FIG. 12B is vehicle, FIG. 12C is docetaxel, FIG. 12D is Compound 9, and FIG. 12E is Compound 9+docetaxel.

In the next data set the target is recombinant human ENTPD3 (Homo sapiens (Human), UniProt O75355). Kind of data set: Recombinant human ENTPD3 malachite green assay. In kind it is biochemical. The protocol: (§3) Using Compound 9, the activity of cell surface CD39 was assessed using K562 cells expressing human CD39 and Kinase-Glo. Activity of recombinant human ENTPD2 and ENTPD3 was assessed using a malachite green assay. […] Compound 9 was screened in the Eurofins Safety Screen Panel and the Eurofins Express Diversity Kinase Profile Panel. In the Safety Panel, 1/87 targets were inhibited at >50% at 10 μM of Compound 9. The PDE3 enzyme was inhibited at 59%.
recombinant human ENTPD3, sequence (O75355 whole entry): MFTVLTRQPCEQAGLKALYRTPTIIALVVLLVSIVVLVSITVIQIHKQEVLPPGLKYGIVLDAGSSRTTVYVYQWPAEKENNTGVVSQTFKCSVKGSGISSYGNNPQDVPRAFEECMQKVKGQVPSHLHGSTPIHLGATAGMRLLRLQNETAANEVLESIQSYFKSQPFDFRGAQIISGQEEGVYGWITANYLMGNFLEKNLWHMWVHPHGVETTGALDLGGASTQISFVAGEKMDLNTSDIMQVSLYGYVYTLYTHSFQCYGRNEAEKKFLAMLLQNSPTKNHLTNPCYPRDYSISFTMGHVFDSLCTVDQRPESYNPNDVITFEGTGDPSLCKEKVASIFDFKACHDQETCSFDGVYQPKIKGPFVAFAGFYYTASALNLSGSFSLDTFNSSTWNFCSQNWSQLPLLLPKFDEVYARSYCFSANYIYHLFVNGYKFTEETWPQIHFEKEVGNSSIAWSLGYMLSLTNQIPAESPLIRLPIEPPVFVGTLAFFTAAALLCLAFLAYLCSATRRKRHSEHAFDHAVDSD

The subject of another data set is CT26 cells. The experiment in a line: CT26 subcutaneous tumor model in Balb/c mice, tumor volume. It counts as in vivo, mouse. Conditions: 100 mg/kg orally BID from day one post implant. The procedure: as §2
The target in another data set is recombinant human ENTPD2 (Homo sapiens (Human), UniProt Q9Y5L3). The experiment in a line: Recombinant human ENTPD2 malachite green assay. It counts as biochemical. The procedure: as §3
recombinant human ENTPD2, sequence (Q9Y5L3 whole entry): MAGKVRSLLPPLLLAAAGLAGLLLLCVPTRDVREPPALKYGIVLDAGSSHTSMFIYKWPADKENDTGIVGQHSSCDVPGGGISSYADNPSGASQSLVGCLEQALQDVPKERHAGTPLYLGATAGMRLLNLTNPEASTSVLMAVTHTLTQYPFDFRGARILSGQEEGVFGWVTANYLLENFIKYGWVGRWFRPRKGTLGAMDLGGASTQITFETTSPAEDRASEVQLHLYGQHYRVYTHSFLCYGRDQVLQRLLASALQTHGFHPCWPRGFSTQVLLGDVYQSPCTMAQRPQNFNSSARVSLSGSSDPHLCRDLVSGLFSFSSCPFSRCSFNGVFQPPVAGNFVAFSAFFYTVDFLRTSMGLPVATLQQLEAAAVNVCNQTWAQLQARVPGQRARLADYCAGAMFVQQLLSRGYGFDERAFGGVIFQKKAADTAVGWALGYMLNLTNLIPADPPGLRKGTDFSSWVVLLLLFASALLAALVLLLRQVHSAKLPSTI
The target in data set [1] is CD73 activity in cancer patient serum (Homo sapiens (Human), UniProt P21589). Kind of data set: CD73 activity in cancer patient serum, LC/MS conversion of 15N5-AMP to 15N5-ADO. In kind it is biochemical. The following applies: TNAP inhibitor present. The protocol: Serum was procured from Discovery Life Sciences. Serum from head and neck squamous cell carcinoma (HNSCC), ovarian cancer, triple-negative breast cancer and esophageal cancer patients were incubated with a serial dilution of Compound 9 in the presence of a TNAP inhibitor. Conversion of ^15N5-AMP to ^15N5-ADO was measured by LC/MS. FIG. 10A depicts the sub-nanomolar inhibition of HNSCC serum. FIG. 10B depicts the sub-nanomolar inhibition of ovarian cancer serum. FIG. 10C depicts the sub-nanomolar inhibition of TNBC serum. FIG. 10D depicts the sub-nanomolar inhibition of esophageal cancer serum.
CD73 activity in cancer patient serum, sequence (P21589 27-574): as the sequence (P21589 27-574) above

In data set [2] the test system is Eurofins Safety Screen Panel (87 targets). The experiment in a line: Eurofins Safety Screen Panel. Conditions: 10 μM. The protocol: as §3

pIC50: −log10 of the molar value. Some results are limits rather than exact numbers.

human plasma CD73, sequence (P21589 27-574): as above

As for `C#C[C@@]1(O)[C@@H](COC(Cc2ccc(N3CCCNC3=O)cc2)(C(=O)O)C(=O)O)O[C@@H](n2cnc3c(N)nc(Cl)nc32)[C@@H]1O` [Compound 9, 2-(((2R,3S,4R,5R)-5-(6-amino-2-chloro-9H-purin-9-yl)-3-ethynyl-3,4-dihydroxytetrahydrofuran-2-yl)methoxy)-2-(4-(2-oxotetrahydropyrimidin-1 (2H)-yl)benzyl)malonic acid], the pIC50 at human plasma CD73 was 9.42; on recombinant CD73, 9.77; on recombinant human ENTPD3, below 5.00; at recombinant human ENTPD2, below 5.00. Also, in the data set with Human CD8+ T cells, the “% divided cells of human CD8+ T cells” value was “comparable % divided cells”. In the data set on EG7 cells (50 mg/kg orally BID from day 1, anti-CD8 antibody i.p. days -1, 0, 5, 10), the “tumor volume reduction, with or without CD8+ T cell depletion” value is “more of a tumor volume reduction”. Further, the “tumor volume, established EG7 tumors” value in the data set on EG7 cells (100 mg/kg orally BID starting day six post implant) is on record as “decrease in tumor volume”. Moreover, the “tumor volume, EG7, single agent and combination with doxorubicin” value in the data set on EG7 cells (Compound 9 50 mg/kg orally BID, doxorubicin i.v. 2.5 mg/kg days 7 and 14) is on record as “reduction in tumor volume”. In addition, the “tumor volume, EG7, single agent and combination with anti-PD-L1 antibody” value in the data set with EG7 cells (Compound 9 100 mg/kg orally BID, anti-PD-L1 5 mg/kg i.p. days 3, 5, 7, 9, 11, 13) is recorded as “reduction in tumor volume”. For the same compound, in the data set with EG7 cells (Compound 9 100 mg/kg orally BID, docetaxel i.p. 5 mg/kg days 5, 12, 19), the “tumor volume, EG7, single agent and combination with docetaxel” value is given as “reduction in tumor volume”. The “tumor volume, EG7, single agent and combination with oxaliplatin” value in the data set with EG7 cells (Compound 9 100 mg/kg orally BID, oxaliplatin i.p. 6 mg/kg days 7 and 14) is recorded as “reduction in tumor volume”. In addition, the “tumor volume, EG7, dose response” value in the data set on EG7 cells (orally BID from day one post implant, increasing doses) was “further decrease in tumor volume with increasing doses”. The “tumor volume, CT26” value in the data set on CT26 cells was “decrease in tumor volume compared to vehicle”. The “inhibition of CD73 activity in esophageal cancer serum” value in [1] (esophageal cancer serum) is reported as “sub-nanomolar”. Moreover, the “inhibition of CD73 activity in HNSCC serum” value in data set [1] (head and neck squamous cell carcinoma serum) is “sub-nanomolar”. In data set [1] (ovarian cancer serum), the “inhibition of CD73 activity in ovarian cancer serum” value is “sub-nanomolar”. For the same compound, the “inhibition of CD73 activity in TNBC serum” value in data set [1] (triple-negative breast cancer serum) is reported as “sub-nanomolar”. Besides, the “Safety Panel targets inhibited at >50%” value in [2] is recorded as 1/87.
